Key:
[1] = tested on: adult American dog tick (Dermacentor variabilis); test: Therapeutic (knockdown) and residual efficacy against adult American dog tick infestations on dogs, oral; type: in vivo; settings: for Residual efficacy: Example 7, oral capsule 35 mg/kg
Method: (§1) The therapeutic (knockdown) and residual efficacy of 5, administered orally at a point dose of 25 mg/kg bodyweight, was evaluated against adult American dog tick (D. variabilis) infestations on dogs. Six beagle dogs were allocated to one of two treatment groups, an untreated control group (n=4 dogs) or 5 group (n=2 dogs). On Day 0, two dogs were treated with 5 via oral gavage (25 mg/ml 5, dissolved in a solution of 55% polyethylene glycol-300, 35% propylene glycol and 10% water) at a point dose of approximately 25 mg/kg. Twenty-four (24) hours before treatment (Day −1), all dogs were infested with approximately 50 unfed, adult-stage American dog ticks (D. variabilis; approximately 50% male and 50% female). On Day 1, approximately 24 hours after treatment, thumb counts were conducted to determine the number and life-status classification of ticks present on all dogs (normal, moribund or dead; attached or detached). Ticks were not removed during thumb counts. On Day 2, approximately 48 hours after treatment, all ticks were classified and removed from dogs. Dogs were re-infested with approximately 50 unfed, adult D. variabilis ticks on Days 5 and 12, with tick classification, counts and removal on Days 7 and 14 (approximately 48 hours after each infestation).
(§2) The therapeutic (knockdown) and residual efficacy of 7 and 8, each administered orally at a point dose of 25 mg/kg bodyweight, was evaluated against adult tick (Dermacentor variabilis and Rhipicephalus sanguineus) and adult cat flea (Ctenocephalides felis) infestations on dogs. Twelve (12) male and female beagle dogs were randomly allocated to one of three treatment groups, four (4) dogs per group: Untreated control; 7, 25 mg/kg; and 8, 25 mg/kg. On Day −1, all dogs were infested with approximately 50 unfed, adult D. variabilis ticks. On Day 0, dogs were orally administered gelatin capsules containing either 7 or 8 (50% technical active, 47% microcrystalline cellulose and 3% croscarmellose sodium, w/w). Ticks were counted and classified, but not removed, on all dogs on Day 1, approximately 24 hours after treatment. On Day 2, approximately 48 hours after treatment, ticks were counted, classified and removed. Dogs were re-infested with the same number of D. variabilis ticks on Days 5, 12, 19 and 28 and tick counts were conducted on Days 7, 14, 21 and 30.
The therapeutic (knockdown) and residual efficacy of 7, administered orally at a point dose of 35 mg/kg bodyweight, was evaluated against adult tick (Dermacentor variabilis and Rhipicephalus sanguineus) and adult cat flea (Ctenocephalides felis) infestations on dogs. Twelve (12) male and female beagle dogs were allocated to either an untreated, negative control group or 7 group (n=6 dogs per group). Dogs were infested with approximately 50 unfed, adult D. variabilis ticks on Days −1, 5, 12, 19, 28, 35 and 42. On Day 0, dogs were orally administered gelatin capsules containing Compound 8194 (50% technical active, 47% microcrystalline cellulose and 3% croscarmellose sodium, w/w) at a point dose of 35 mg/kg. D. variabilis tick counts and classification were conducted on Day 1 (thumb count, approximately 24 hours after treatment) and Days 2, 7, 14, 21, 30, 37 and 44 (approximately 48 hours after treatment). Following removal of D. variabilis ticks on Day 30, all dogs were co-infested with approximately 50 unfed, adult brown dog ticks (R. sanguineus) and approximately 100 unfed, adult cat fleas (C. felis). Brown dog tick and cat flea counts were conducted on Day 32 (approximately 48 hours after infestation). GM percent efficacy of treatments against both tick species and fleas was calculated using the following formula: […]
The therapeutic (knockdown) and residual efficacy of S-enantiomer, 9, administered orally at a point dose of 25 mg/kg bodyweight, was evaluated against adult tick (Dermacentor variabilis and Rhipicephalus sanguineus) and adult cat flea (Ctenocephalides felis) infestations on dogs. […]

[2] = Tolerability of oral treatment in dogs; type: in vivo, dog
Method: as §1, §2
The therapeutic (knockdown) and residual efficacy of 7, administered orally at a point dose of 35 mg/kg bodyweight, was evaluated against adult tick (Dermacentor variabilis and Rhipicephalus sanguineus) and adult cat flea (Ctenocephalides felis) infestations on dogs. Twelve (12) male and female beagle dogs were allocated to either an untreated, negative control group or 7 group (n=6 dogs per group). Dogs were infested with approximately 50 unfed, adult D. variabilis ticks on Days −1, 5, 12, 19, 28, 35 and 42. On Day 0, dogs were orally administered gelatin capsules containing Compound 8194 (50% technical active, 47% microcrystalline cellulose and 3% croscarmellose sodium, w/w) at a point dose of 35 mg/kg. […] GM percent efficacy of treatments against both tick species and fleas was calculated using the following formula: […]
The therapeutic efficacy and speed of kill of 7, administered orally at a point dose of 20 mg/kg bodyweight, was evaluated against adult cat flea (Ctenocephalides felis) infestations on dogs. […]

[3] = Table 2, oral capsule 25 mg/kg, Day 2
[4] = Table 2, oral capsule 25 mg/kg, Day 7
[5] = Table 2, oral capsule 25 mg/kg, Day 14
[6] = Table 2, oral capsule 25 mg/kg, Day 21
[7] = Table 2, oral capsule 25 mg/kg, Day 30
[8] = Table 3, oral capsule 35 mg/kg, Day 2
[9] = Table 3, oral capsule 35 mg/kg, Day 7
[10] = Table 3, oral capsule 35 mg/kg, Day 14
[11] = Table 3, oral capsule 35 mg/kg, Day 21
[12] = Table 3, oral capsule 35 mg/kg, Day 30
[13] = Table 3, oral capsule 35 mg/kg, Day 37
[14] = Table 3, oral capsule 35 mg/kg, Day 44

SMILES: Cc1cc(C2=NOC(c3cc(Cl)c(Cl)c(Cl)c3)(C(F)(F)F)C2)ccc1C(=O)NCc1ccc2c(c1)B(O)OC2(C)C (stereo not shown) [Compound 7, N-((1-Hydroxy-3,3-dimethyl-1,3-dihydrobenzo[c][1,2]oxaborol-6-yl)methyl)-2-methyl-4-(5-(3,4,5-trichlorophenyl)-5-(trifluoromethyl)-4,5-dihydroisoxazol-3-yl)benzamide]
- continued residual efficacy ([1]; Example 6, oral capsule 25 mg/kg, through at least 14 days): 100%
- Residual efficacy ([1]; through Day 14): > 99%
- Residual efficacy ([1]; through Day 37): > 95%
- Geometric mean group live parasite counts ([1]; Table 2, oral capsule 25 mg/kg, Day 1): 0.0
- % efficacy [1, 3]: (100) %
- Geometric mean group live parasite counts [1, 3]: 0.0
- % efficacy [1, 4]: (100) %
- Geometric mean group live parasite counts [1, 4]: 0.0
- % efficacy [1, 5]: (100) %
- Geometric mean group live parasite counts [1, 5]: 0.0
- % efficacy [1, 6]: (99.3) %
- Geometric mean group live parasite counts [1, 6]: 0.3
- % efficacy [1, 7]: (73.2) %
- Geometric mean group live parasite counts [1, 7]: 9.5
- Geometric mean group live parasite counts ([1]; Table 3, oral capsule 35 mg/kg, Day 1): 0.1
- % efficacy [1, 8]: (100) %
- Geometric mean group live parasite counts [1, 8]: 0.0
- % efficacy [1, 9]: (99.1) %
- Geometric mean group live parasite counts [1, 9]: 0.3
- % efficacy [1, 10]: (100) %
- Geometric mean group live parasite counts [1, 10]: 0.0
- % efficacy [1, 11]: (98.4) %
- Geometric mean group live parasite counts [1, 11]: 0.2
- % efficacy [1, 12]: (98.7) %
- Geometric mean group live parasite counts [1, 12]: 0.4
- % efficacy [1, 13]: (95.7) %
- Geometric mean group live parasite counts [1, 13]: 1.2
- % efficacy [1, 14]: (67.2) %
- Geometric mean group live parasite counts [1, 14]: 9.3
- tolerability ([2]; Example 6, oral capsule 25 mg/kg): well tolerated
- tolerability ([2]; Example 7, oral capsule 35 mg/kg): well tolerated
